Reference: the supplement of paper PMC12137928
Where a name gives a salt, the structure may show the parent alone.

System: HCT116
Conditions: 72 h
Summary of the method: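 HCT116 cells went into 1536-well plates at 250 per well. CellTiter-Glo luminescence was expressed relative to vehicle (0%) and positive control (-100%) and then pattern-corrected. Both IC50 and maximal efficacy were taken from four-parameter Hill fits.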

Row | Compound | IC50 cell viability (ICRF193 0 nM) | IC50 cell viability (ICRF193 200 nM)
1 | CCCC(=O)OCOC(=O)C1=C(C)NC(C)=C(C(=O)OC)C1c1cccc(Cl)c1Cl (stereo not drawn) [Clevidipine] | > 45.8 µM | > 45.8 µM
2 | C[N+]12CCC(CC1)C(OC(=O)C(O)(c1ccccc1)c1ccccc1)C2 (stereo not drawn) [Clidinium bromide] | > 45.8 µM | > 45.8 µM
3 | CC(C)(C)C(=O)C(Oc1ccc(Cl)cc1)n1ccnc1 (stereo not drawn) [Climbazole] | > 45.8 µM | > 45.8 µM
4 | CCC[C@@H]1C[C@@H](C(=O)N[C@@H]([C@H]2O[C@H](SC)[C@H](OP(=O)(O)O)[C@@H](O)[C@H]2O)[C@H](C)Cl)N(C)C1 [Clindamycin Phosphate] | > 45.8 µM | > 45.8 µM
5 | CCC[C@@H]1C[C@@H](C(=O)N[C@@H]([C@H]2O[C@H](SC)[C@H](O)[C@@H](O)[C@H]2O)[C@H](C)Cl)N(C)C1 [Clindamycin hydrochloride] | > 45.8 µM | > 45.8 µM
6 | CCCCCCCCCCCCCCCC(=O)O[C@@H]1[C@@H](O)[C@@H](O)[C@@H]([C@H](NC(=O)[C@@H]2C[C@@H](CCC)CN2C)[C@H](C)Cl)O[C@@H]1SC [Clindamycin palmitate HCl] | > 45.8 µM | > 45.8 µM
7 | CCC(C)(Oc1ccc(C2(c3ccc(OC(C)(CC)C(=O)O)cc3)CCCCC2)cc1)C(=O)O (stereo not drawn) [Clinofibrate] | > 45.8 µM | > 45.8 µM
8 | CC(Cc1ccccc1)NCc1ccccc1Cl (stereo not drawn) [Clobenzorex hydrochloride] | > 45.8 µM | > 45.8 µM
9 | CCC(=O)O[C@]1(C(=O)CCl)[C@@H](C)C[C@H]2[C@@H]3CCC4=CC(=O)C=C[C@]4(C)[C@@]3(F)[C@@H](O)C[C@@]21C [Clobetasol propionate] | > 45.8 µM | > 45.8 µM
10 | CC(CN(C)C)C(C)(O)Cc1ccc(Cl)cc1 (stereo not drawn) [Clobutinol hydrochloride] | > 45.8 µM | > 45.8 µM
11 | C[C@@H]1C[C@H]2[C@@H]3C[C@H](F)C4=CC(=O)C=C[C@]4(C)[C@@]3(Cl)[C@@H](O)C[C@]2(C)[C@H]1C(=O)COC(=O)C(C)(C)C [Clocortolone pivalate] | > 45.8 µM | > 45.8 µM
12 | O=P(O)(O)C(Cl)(Cl)P(=O)(O)O [Clodronate] | > 45.8 µM | > 45.8 µM
13 | CC(C)/N=c1\cc2n(-c3ccc(Cl)cc3)c3ccccc3nc-2cc1Nc1ccc(Cl)cc1 [Clofazimine] | > 45.8 µM | > 45.8 µM
14 | NS(=O)(=O)c1ccc(Cl)c(S(N)(=O)=O)c1 [Clofenamide] | > 45.8 µM | > 45.8 µM
15 | CCOC(=O)C(C)(C)Oc1ccc(Cl)cc1 [Clofibrate] | > 45.8 µM | > 45.8 µM
16 | Cc1ncsc1CCCl [Clomethiazole] | > 45.8 µM | > 45.8 µM
17 | Clc1ccc(C(OCCN2CCCCC2)c2ccccc2)cc1 (stereo not drawn) [Cloperastine hydrochloride] | > 45.8 µM | > 45.8 µM
18 | Cc1nc(C)c(Cl)c(O)c1Cl [Clopidol] | > 45.8 µM | > 45.8 µM
19 | O=C(O)CCC/C=C\CC1C(O)CC(O)C1/C=C/C(O)COc1cccc(Cl)c1 (stereo not drawn) [Cloprostenol (sodium salt)] | > 45.8 µM | > 45.8 µM
20 | Oc1ccc(Cl)cc1Cc1ccccc1 [Clorophene] | > 45.8 µM | > 45.8 µM
21 | CC(C)NCC(O)c1ccccc1Cl (stereo not drawn) [Clorprenaline hydrochloride] | > 45.8 µM | > 45.8 µM
22 | Nc1cc(C(Cl)=C(Cl)Cl)c(S(N)(=O)=O)cc1S(N)(=O)=O [Clorsulon] | > 45.8 µM | > 45.8 µM

Row | Compound | IC50 cell viability (ICRF193 0 nM) | IC50 cell viability (ICRF193 200 nM)
23 | CN1CCN(C2=Nc3ccccc3Sc3ccc(Cl)cc32)CC1 [Clothiapine] | > 45.8 µM | > 45.8 µM
24 | Cc1onc(-c2ccccc2Cl)c1C(=O)N[C@@H]1C(=O)N2[C@@H]1SC(C)(C)[C@@H]2C(=O)O [Cloxacillin sodium] | > 45.8 µM | > 45.8 µM
25 | O=C1CN2CCOC2(c2ccccc2Cl)c2cc(Cl)ccc2N1 (stereo not drawn) [Cloxazolam] | > 45.8 µM | > 45.8 µM
26 | Oc1ccc(Cl)c2cccnc12 [Cloxyquin] | > 45.8 µM | > 45.8 µM
27 | CN1CCN(C2=Nc3cc(Cl)ccc3Nc3ccccc32)CC1 [Clozapine] | > 45.8 µM | > 45.8 µM
28 | Cc1c(C(=O)O)c(O)cc2c1C(=O)c1c(O)c(C3OC(CO)C(O)C(O)C3O)c(O)c(O)c1C2=O (stereo not drawn) [Cochineal] | > 45.8 µM | > 45.8 µM
29 | COC1=C(OC)C(=O)C(C/C=C(\C)CC/C=C(\C)CC/C=C(\C)CC/C=C(\C)CC/C=C(\C)CC/C=C(\C)CC/C=C(\C)CC/C=C(\C)CC/C=C(\C)CCC=C(C)C)=C(C)C1=O [Coenzyme Q10] | > 45.8 µM | > 45.8 µM
30 | CC(=O)OCC(=O)[C@@]1(O)CC[C@H]2[C@@H]3CCC4=CC(=O)CC[C@]4(C)[C@H]3C(=O)C[C@@]21C [Cortisone acetate] | > 45.8 µM | > 45.8 µM
31 | CCOP(=S)(OCC)Oc1ccc2c(C)c(Cl)c(=O)oc2c1 [Coumaphos] | > 45.8 µM | > 45.8 µM
32 | O=c1ccc2ccccc2o1 [Coumarin] | > 45.8 µM | > 45.8 µM
33 | CC(/C=C/C=C(\C)C(=O)O[C@@H]1O[C@H](CO[C@@H]2O[C@H](CO)[C@@H](O)[C@H](O)[C@H]2O)[C@@H](O)[C@H](O)[C@H]1O)=C\C=C\C=C(C)\C=C\C=C(/C)C(=O)O[C@@H]1O[C@H](CO[C@@H]2O[C@H](CO)[C@@H](O)[C@H](O)[C@H]2O)[C@@H](O)[C@H](O)[C@H]1O [Crocin?] | > 45.8 µM | > 45.8 µM
34 | CCOC(=O)c1cc(=O)c2c(OCC(COc3cccc4oc(C(=O)OCC)cc(=O)c34)OC(=O)[C@@H](N)CCCCN)cccc2o1 [Cromoglicate lisetil] | > 45.8 µM | > 45.8 µM
35 | CC=CC(=O)N(CC)c1ccccc1C [Crotamiton] | > 45.8 µM | > 45.8 µM
36 | CC1CC(OC(=O)C(O)c2ccccc2)CC(C)(C)C1 (stereo not drawn) [Cyclandelate] | > 45.8 µM | > 45.8 µM
37 | CN1CCN(C(c2ccccc2)c2ccccc2)CC1 [Cyclizine hydrochloride] | > 45.8 µM | > 45.8 µM
38 | CC(=O)Oc1ccc(C(=C2CCCCC2)c2ccc(OC(C)=O)cc2)cc1 [Cyclofenil] | > 45.8 µM | > 45.8 µM
39 | CC1CCCCN1CCCOC(=O)c1ccc(OC2CCCCC2)cc1 (stereo not drawn) [Cyclomethycaine] | > 45.8 µM | > 45.8 µM
40 | CNC(C)CC1CCCC1 (stereo not drawn) [Cyclopentamine hydrochloride] | > 45.8 µM | > 45.8 µM
41 | NS(=O)(=O)c1cc2c(cc1Cl)NC(CC1CCCC1)NS2(=O)=O (stereo not drawn) [Cyclopenthiazide] | > 45.8 µM | > 45.8 µM
42 | CN(C)CCOC(=O)C(c1ccccc1)C1(O)CCCC1 (stereo not drawn) [Cyclopentolate hydrochloride] | > 45.8 µM | > 45.8 µM
43 | O=P1(N(CCCl)CCCl)NCCCO1 (stereo not drawn) [Cyclophosphamide] | > 45.8 µM | > 45.8 µM
44 | NS(=O)(=O)c1cc2c(cc1Cl)NC(C1CC3C=CC1C3)NS2(=O)=O (stereo not drawn) [Cyclothiazide] | > 45.8 µM | > 45.8 µM
